For 42 compounds, IC50 results are on record in ChEMBL document CHEMBL5154749 (Eur J Med Chem, 2022).

Chain of Serine/threonine-protein kinase ATR (Q13535 whole entry): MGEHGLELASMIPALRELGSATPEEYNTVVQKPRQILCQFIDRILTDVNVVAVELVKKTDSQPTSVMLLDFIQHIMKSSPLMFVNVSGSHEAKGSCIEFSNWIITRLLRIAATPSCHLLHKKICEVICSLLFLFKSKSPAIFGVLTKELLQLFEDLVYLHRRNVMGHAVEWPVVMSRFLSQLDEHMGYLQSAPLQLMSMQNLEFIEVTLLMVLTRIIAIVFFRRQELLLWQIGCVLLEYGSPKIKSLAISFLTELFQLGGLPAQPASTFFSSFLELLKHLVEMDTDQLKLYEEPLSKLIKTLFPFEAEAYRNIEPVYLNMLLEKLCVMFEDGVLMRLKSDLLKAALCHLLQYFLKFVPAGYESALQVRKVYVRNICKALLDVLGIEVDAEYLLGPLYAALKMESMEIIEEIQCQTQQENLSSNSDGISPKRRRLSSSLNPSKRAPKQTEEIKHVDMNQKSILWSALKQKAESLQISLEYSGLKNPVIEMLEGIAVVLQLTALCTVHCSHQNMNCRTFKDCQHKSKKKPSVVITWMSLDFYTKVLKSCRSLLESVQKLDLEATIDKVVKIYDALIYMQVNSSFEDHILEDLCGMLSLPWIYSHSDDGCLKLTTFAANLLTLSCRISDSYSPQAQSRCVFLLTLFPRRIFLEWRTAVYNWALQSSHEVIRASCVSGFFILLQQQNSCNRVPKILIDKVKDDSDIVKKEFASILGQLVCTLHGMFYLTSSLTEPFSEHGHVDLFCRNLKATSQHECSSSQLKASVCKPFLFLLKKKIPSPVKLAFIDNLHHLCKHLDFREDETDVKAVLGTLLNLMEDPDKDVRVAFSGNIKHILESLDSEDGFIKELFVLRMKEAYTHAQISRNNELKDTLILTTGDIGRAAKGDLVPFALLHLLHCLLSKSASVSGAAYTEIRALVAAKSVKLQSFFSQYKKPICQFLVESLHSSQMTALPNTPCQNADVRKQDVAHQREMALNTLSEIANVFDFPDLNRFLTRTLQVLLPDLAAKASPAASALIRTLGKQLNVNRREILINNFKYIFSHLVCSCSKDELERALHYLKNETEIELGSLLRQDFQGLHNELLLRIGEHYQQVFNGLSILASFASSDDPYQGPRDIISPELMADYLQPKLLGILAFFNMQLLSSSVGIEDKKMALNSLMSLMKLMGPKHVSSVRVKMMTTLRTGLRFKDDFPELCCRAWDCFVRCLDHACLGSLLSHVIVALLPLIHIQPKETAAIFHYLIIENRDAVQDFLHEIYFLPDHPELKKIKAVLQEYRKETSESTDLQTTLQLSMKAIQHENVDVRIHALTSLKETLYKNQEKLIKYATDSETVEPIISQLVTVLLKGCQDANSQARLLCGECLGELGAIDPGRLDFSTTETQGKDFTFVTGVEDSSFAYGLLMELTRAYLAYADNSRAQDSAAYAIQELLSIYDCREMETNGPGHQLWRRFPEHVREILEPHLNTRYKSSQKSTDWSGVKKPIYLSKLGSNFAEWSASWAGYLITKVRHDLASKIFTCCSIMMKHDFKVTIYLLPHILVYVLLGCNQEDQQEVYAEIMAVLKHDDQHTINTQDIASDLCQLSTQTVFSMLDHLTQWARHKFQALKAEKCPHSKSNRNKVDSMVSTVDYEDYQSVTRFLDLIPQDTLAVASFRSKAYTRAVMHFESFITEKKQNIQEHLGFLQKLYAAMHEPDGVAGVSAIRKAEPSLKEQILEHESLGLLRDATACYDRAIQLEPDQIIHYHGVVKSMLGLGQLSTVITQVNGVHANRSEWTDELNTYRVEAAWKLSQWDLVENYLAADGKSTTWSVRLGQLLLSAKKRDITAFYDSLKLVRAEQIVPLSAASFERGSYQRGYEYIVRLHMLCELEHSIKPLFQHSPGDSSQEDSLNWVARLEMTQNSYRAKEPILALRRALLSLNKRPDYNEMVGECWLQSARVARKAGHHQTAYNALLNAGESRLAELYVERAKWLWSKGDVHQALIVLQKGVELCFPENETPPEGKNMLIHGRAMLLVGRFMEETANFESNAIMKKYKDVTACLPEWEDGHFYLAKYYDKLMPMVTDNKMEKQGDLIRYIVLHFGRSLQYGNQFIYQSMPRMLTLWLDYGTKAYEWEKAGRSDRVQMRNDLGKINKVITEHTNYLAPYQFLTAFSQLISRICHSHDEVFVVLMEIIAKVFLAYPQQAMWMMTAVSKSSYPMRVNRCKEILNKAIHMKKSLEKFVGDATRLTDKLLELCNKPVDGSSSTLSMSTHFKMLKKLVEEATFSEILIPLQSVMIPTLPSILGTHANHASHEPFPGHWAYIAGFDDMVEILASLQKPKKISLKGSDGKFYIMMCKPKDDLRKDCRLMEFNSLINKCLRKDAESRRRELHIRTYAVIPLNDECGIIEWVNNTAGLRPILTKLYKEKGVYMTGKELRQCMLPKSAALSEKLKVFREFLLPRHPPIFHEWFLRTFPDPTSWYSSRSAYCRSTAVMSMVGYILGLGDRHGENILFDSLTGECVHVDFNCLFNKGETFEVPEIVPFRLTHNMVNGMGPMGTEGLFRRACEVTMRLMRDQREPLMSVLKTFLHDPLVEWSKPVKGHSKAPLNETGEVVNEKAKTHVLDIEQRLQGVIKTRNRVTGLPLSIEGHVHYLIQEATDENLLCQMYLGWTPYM

The first assay relates to HT-29. Put plainly: Cytotoxicity against ATM proficient human HT-29 cells assessed as reduction in cell viability incubated for 72 hrs by MTT assay. It is filed as functional, cell-based. The settings on record: HT-29, 72 h.
`CC(C)n1c(=O)n(C)c2cnc3cc(F)c(-c4ccc(OCCCN5CCCCC5)nc4)cc3c21` [AZD-1390]: the IC50 (in general, the midpoint of a concentration-inhibition curve) is more than 10000 nM.

Another assay has as its target Serine/threonine-protein kinase ATR (Homo sapiens, UniProt Q13535). Put plainly: Inhibition of human recombinant full length ATR using GST-cMyc-p53 as substrate incubated for 40 mins in presence of ATP by HTRF assay.
Conditions: not given
A general note: TR-FRET usually uses a lanthanide donor and a delayed reading to cut background.
Turning to `C[C@H]1COCCN1c1nc(-c2cccc3[nH]ccc23)nc2ccc(-c3ccnn3C)cc12`, the 50% inhibitory concentration (IC50) came out at 700 nM.

For `C[C@@H]1COCCN1c1nc(-c2cccc3[nH]ccc23)nc2ccc(-c3cnn(C)c3)cc12`, the IC50 was determined as 700 nM.

As to `COC(=O)C1CN(c2nc(-c3cccc4[nH]ccc34)nc3ccc(-c4ccnn4C)cc23)CCO1` (configuration not stated), the IC50 is more than 10000 nM.

With `C[C@@H]1COCCN1c1nc(-c2cccc3[nH]ccc23)nc2ccc(-c3cccn3C)cc12`, the IC50 is 289 nM.

As for `C[C@@H]1COCCN1c1nc(-c2cccc3[nH]ccc23)nc2ccc(-c3cncn3C)cc12`, the IC50 is 33 nM.

As to `C[C@@H]1COCCN1c1nc(-c2cc(F)cc3[nH]ccc23)nc2ccc(-c3ccnn3C)cc12`, the half-maximal inhibitory concentration (IC50) came out at 96 nM.

For `Cn1nccc1-c1ccc2nc(-c3cccc4[nH]ccc34)nc(N3CCC[C@H](N)C3)c2c1`, the IC50 is more than 10000 nM.

For the compound `Cn1nccc1-c1ccc2nc(-c3cccc4[nH]ccc34)nc(N3CC4CC3CO4)c2c1` (configuration not stated), the IC50 was 609 nM.

As for `Cc1noc(C)c1-c1ccc2nc(-c3cccc4[nH]ccc34)nc(N3CCOC[C@H]3C)c2c1`, the IC50 was 32 nM.

As to `C[C@@H]1COCCN1c1nc(-c2cccc3[nH]ccc23)nc2ccc(-c3ccsc3)cc12`, the IC50 was 2790 nM.

As for `Cn1nccc1-c1ccc2nc(-c3cccc4[nH]ccc34)nc(N3CC4CCC(C3)O4)c2c1`, the IC50 came to 45 nM.

On to `C[C@@H]1CN(c2nc(-c3cccc4[nH]ccc34)nc3ccc(-c4ccnn4C)cc23)C[C@H](C)O1`, for which the IC50 was more than 10000 nM.

With `C[C@@H]1COCCN1c1nc(-c2cc[nH]n2)nc2ccc(-c3ccnn3C)cc12`, the IC50 was more than 10000 nM.

Take `C[C@@H]1COCCN1c1nc(-c2cccc3[nH]ccc23)nc2ccc(-c3ccc(N4CCOCC4)nc3)cc12`: the IC50 came to 578 nM.

`C[C@@H]1CNCCN1c1nc(-c2cccc3[nH]ccc23)nc2ccc(-c3ccnn3C)cc12`: the IC50 was more than 10000 nM.

Turning to `C[C@@H]1COCCN1c1nc(-c2cn[nH]c2)nc2ccc(-c3ccnn3C)cc12`, the IC50 is more than 10000 nM.

As to `Cc1ccc2[nH]ncc2c1-c1nc(N2CCOC[C@H]2C)c2cc(-c3ccnn3C)ccc2n1`, the IC50 is more than 10000 nM.

With `C[C@@H]1COCCN1c1nc(-c2cnn(C3CCNCC3)c2)nc2ccc(-c3ccnn3C)cc12`, the IC50 was more than 10000 nM.

Consider `C[C@@H]1COCCN1c1nc(-c2cccc3[nH]ccc23)nc2ccc(-c3ccc(C#N)nc3)cc12`, for which the IC50 is more than 10000 nM.

Regarding `C[C@@H]1COCCN1c1nc(-c2c[nH]c3ccccc23)nc2ccc(-c3ccnn3C)cc12`, the IC50 worked out at 215 nM.

Take `CCn1nccc1-c1ccc2nc(-c3cccc4[nH]ccc34)nc(N3CCOC[C@H]3C)c2c1`: the IC50 was determined as 18 nM.

As to `C[C@@H]1COCCN1c1nc(-c2cc(C(F)(F)F)cc3[nH]ccc23)nc2ccc(-c3ccnn3C)cc12`, the IC50 is more than 10000 nM.

Turning to `Cn1nccc1-c1ccc2nc(-c3cccc4[nH]ccc34)nc(N3CC[C@H](N)C3)c2c1`, the half-inhibitory concentration (IC50) is more than 10000 nM.

As to `C[C@@H]1COCCN1c1nc(-c2cccc3[nH]ccc23)nc2ccc(-c3ccncc3)cc12`, the IC50 is 275 nM.

With `C[C@@H]1COCCN1c1nc(-c2cnc3[nH]ccc3c2)nc2ccc(-c3ccnn3C)cc12`, the IC50 was determined as 1770 nM.

As for `C[C@@H]1COCCN1c1nc(-c2cccc3[nH]ccc23)nc2ccc(-c3ccc(=O)n(C)c3)cc12`, the IC50 was determined as 194 nM.

`Cn1nccc1-c1ccc2nc(-c3cccc4[nH]ccc34)nc(N3CCOCC3)c2c1`: the half-maximal inhibitory concentration (IC50) was 89 nM.

Turning to `C[C@@H]1COCCN1c1nc(-c2cccc3[nH]ccc23)nc2ccc(-c3ccoc3)cc12`, the IC50 was 2370 nM.

As to `C[C@@H]1COCCN1c1nc(-c2cccc3[nH]ccc23)nc2ccc(-c3ccccc3)cc12`, the IC50 is 2980 nM.

With `Cn1nccc1-c1ccc2nc(-c3cccc4[nH]ccc34)nc(N3CCC[C@@H](N)C3)c2c1`, the IC50 is more than 10000 nM.

As to `C[C@@H]1COCCN1c1nc(-c2c[nH]c3ncccc23)nc2ccc(-c3ccnn3C)cc12`, the half-inhibitory concentration (IC50) was 3320 nM.

For the compound `Cc1ncc(-c2ccc3nc(-c4cccc5[nH]ccc45)nc(N4CCOC[C@H]4C)c3c2)s1`, the IC50 came to 2440 nM.

As to `Cn1nccc1-c1ccc2nc(-c3cccc4[nH]ccc34)nc(N3CCN(S(C)(=O)=O)CC3)c2c1`, the IC50 was more than 10000 nM.

In the case of `CC(C)n1nccc1-c1ccc2nc(-c3cccc4[nH]ccc34)nc(N3CCOC[C@H]3C)c2c1`, the IC50 was 83 nM.

In the case of `C[C@@H]1COCCN1c1nc(-c2c[nH]c3ncc(F)cc23)nc2ccc(-c3ccnn3C)cc12`, the IC50 came out at 3550 nM.

Take `C[C@@H]1COCCN1c1nc(-c2ccnc3[nH]ccc23)nc2ccc(-c3ccnn3C)cc12`: the IC50 is 115 nM.

`C[C@@H]1COCCN1c1nc(-c2cccc3[nH]ccc23)nc2ccc(-c3ccnn3C3CCCCO3)cc12` (some centres not stated): the IC50 is 435 nM.

On to `Cn1nccc1-c1ccc2nc(-c3cccc4[nH]ccc34)nc(N3C4CCC3COC4)c2c1`, for which the IC50 amounted to 25 nM.

For the compound `Cn1nccc1-c1ccc2nc(-c3cccc4[nH]ccc34)nc(N3CCC(N)C3)c2c1` (configuration not stated), the IC50 is more than 10000 nM.

Take `CCOC(c1ccc2nc(-c3cccc4[nH]ccc34)nc(N3CCOC[C@H]3C)c2c1)n1cccn1` (some centres not stated): the IC50 was determined as 901 nM.

For `C[C@@H]1COCCN1c1nc(-c2cccc3[nH]ccc23)nc2ccc(-c3cccnc3)cc12`, the IC50 is 183 nM.
